In the SangsterLogP compilation:

Compound	logP
CCOc1ccc(C=Cc2ccc3cccc(O)c3n2)cc1	4.75
Oc1ccc(C=Cc2ccc3c(Cl)cc(Cl)c(O)c3n2)cc1	5.72
Oc1ccc(C=Cc2ccc3c(Cl)cc(Cl)c(O)c3n2)cc1O	5.55
Oc1cccc2ccc(C=Cc3ccccc3Cl)nc12	4.99
CCOc1ccccc1C=Cc1ccc2c(Cl)cc(Cl)c(O)c2n1	6.28
CCOc1ccc(C=Cc2ccc3c(Cl)cc(Cl)c(O)c3n2)cc1	6.25
Oc1cc(O)cc(C=Cc2ccc3c(Cl)cc(Cl)c(O)c3n2)c1	5.44
CCOc1ccccc1C=Cc1ccc2cccc(O)c2n1	4.8
Oc1ccccc1C=Cc1ccc2ccccc2n1	4.48
Oc1c(Cl)cc(Cl)c2ccc(C=Cc3ccc(C=Cc4ccc5c(Cl)cc(Cl)c(O)c5n4)cc3)nc12	9.69
Oc1ccc(C=Cc2ccc3c(Cl)cc(Cl)c(O)c3n2)c(O)c1	5.17
Oc1ccc(C=Cc2ccc3cccc(O)c3n2)c(O)c1	3.67
Clc1ccccc1C=Cc1ccc2cccc(Cl)c2n1	5.69
Oc1cccc(C=Cc2ccc3cccc(O)c3n2)c1	4.18
Oc1ccccc1C=Cc1ccc2c(Cl)cc(Cl)c(O)c2n1	5.35
Oc1c(Cl)cc(Cl)c2ccc(C=Cc3ccccc3Cl)nc12	6.49
